Experiments:
[1] = 101 kPa, Liquid
[2] = xn = mol fraction of the nth substance listed; conditions: 101 kPa, Liquid

CN1CCCC1=O [N-methylpyrrolidone]
[1]
Conditions | mass density [kg/m3] | viscosity [mPa·s]
303.15 K | 1023.47 | 1.554
313.15 K | 1014.55 | 1.332
323.15 K | 1005.66 | 1.16
333.15 K | 996.71 | 1.022
343.15 K | 987.75 | 0.908
353.15 K | 978.76 | 0.8127

CN1CCCC1=O [N-methylpyrrolidone] + C1CCCCC1
[2]
Conditions | mass density, 303.15 K [kg/m3] | mass density, 313.15 K [kg/m3] | mass density, 323.15 K [kg/m3] | mass density, 333.15 K [kg/m3] | viscosity, 303.15 K [mPa·s] | viscosity, 313.15 K [mPa·s] | viscosity, 323.15 K [mPa·s] | viscosity, 333.15 K [mPa·s]
x2 = 0 | 1023.47 | 1014.55 | 1005.66 | 996.71 | 1.554 | 1.332 | 1.16 | 1.022
x2 = 0.1157 | 989.9 | 980.96 | 972.02 | 963.06 | 1.394 | 1.206 | 1.056 | 0.931
x2 = 0.2275 | 958.38 | 949.41 | 940.41 | 931.37 | 1.28 | 1.106 | 0.965 | 0.854
x2 = 0.3355 | 928.85 | 919.78 | 910.71 | 901.57 | 1.194 | 1.032 | 0.9 | 0.791
x2 = 0.4398 | 901.35 | 892.21 | 883.02 | 873.78 | 1.132 | 0.973 | 0.843 | 0.739
x2 = 0.5409 | 875.71 | 866.43 | 857.14 | 847.77 | 1.073 | 0.92 | 0.791 | 0.692
x2 = 0.6386 | 851.53 | 842.17 | 832.77 | 823.29 | 1.011 | 0.866 | 0.746 | 0.648
x2 = 0.7332 | 828.73 | 819.29 | 809.79 | 800.2 | 0.953 | 0.813 | 0.699 | 0.608
x2 = 0.8249 | 807.41 | 797.92 | 788.36 | 778.69 | 0.895 | 0.76 | 0.655 | 0.573
x2 = 0.9138 | 787.37 | 777.85 | 768.22 | 758.49 | 0.843 | 0.72 | 0.623 | 0.544

From the NIST ThermoML archive (doi:10.1016/j.jct.2006.06.005)
